Data taken from US20250144094A1 (Erasca, Inc., priority 2021, published 2025).
pIC50: −log10 of the molar value.

Target: Recombinant human ULK1 (1-649) (Homo sapiens (Human), UniProt O75385)
Assay: ULK1 ADP Glo kinase activity assay, new method (ULKtide peptide substrate)
Settings: 25° C., 40 minutes, read-out: ULK1 biochemical IC50
Method in brief: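 GST-tagged human ULK1 (1-649) from Sf9 cells was reacted with ULKtide peptide and ATP for 40 min at 25 °C across 12-point compound dilutions from 10 μM. ADP formed was quantified by ADP-Glo luminescence; IC50 came from four-parameter fits relative to DMSO controls.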

Recombinant human ULK1 (1-649), sequence (O75385 1-649): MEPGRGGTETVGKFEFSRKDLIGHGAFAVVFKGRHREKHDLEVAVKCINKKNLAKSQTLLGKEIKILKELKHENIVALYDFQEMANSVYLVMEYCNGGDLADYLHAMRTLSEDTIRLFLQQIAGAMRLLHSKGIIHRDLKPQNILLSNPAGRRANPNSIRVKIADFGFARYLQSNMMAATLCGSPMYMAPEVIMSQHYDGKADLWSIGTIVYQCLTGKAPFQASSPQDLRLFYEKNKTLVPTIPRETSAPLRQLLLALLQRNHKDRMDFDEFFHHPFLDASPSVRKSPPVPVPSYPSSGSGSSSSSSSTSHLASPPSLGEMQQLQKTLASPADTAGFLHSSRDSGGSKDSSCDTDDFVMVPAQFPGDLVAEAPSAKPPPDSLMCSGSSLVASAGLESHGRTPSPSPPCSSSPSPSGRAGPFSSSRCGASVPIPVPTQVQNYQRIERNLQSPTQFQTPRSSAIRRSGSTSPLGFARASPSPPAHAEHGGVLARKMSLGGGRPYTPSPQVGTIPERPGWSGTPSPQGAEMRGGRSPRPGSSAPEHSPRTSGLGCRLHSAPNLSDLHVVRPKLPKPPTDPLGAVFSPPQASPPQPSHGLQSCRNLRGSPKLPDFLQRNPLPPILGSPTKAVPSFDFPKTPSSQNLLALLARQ

Structure (SMILES)	pIC50
CCc1cc(N2C[C@H]3CC[C@@H](C2)N3)ccc1Nc1ncc(C(F)(F)F)c(-c2cc3c(s2)C(=O)N(C2COC2)CCS3(=O)=O)n1 [Example 337, 7-(2-((4-((1R,5S)-3,8-diazabicyclo[3.2.1]octan-3-yl)-2-ethylphenyl)amino)-5-(trifluoromethyl)pyrimidin-4-yl)-4-(oxetan-3-yl)-3,4-dihydrothieno[2,3-f][1,4]thiazepin-5(2H)-one 1,1-dioxide]	≥ 8.30
O=C1c2sc(-c3nc(Nc4ccc(N5CC6CC(C5)N6)cc4C4CC4)ncc3C(F)(F)F)cc2S(=O)(=O)CCN1C1CC1 [Example 338, 7-(2-((4-(3,6-diazabicyclo[3.1.1]heptan-3-yl)-2-cyclopropylphenyl)amino)-5-(trifluoromethyl)pyrimidin-4-yl)-4-cyclopropyl-3,4-dihydrothieno[2,3-f][1,4]thiazepin-5(2H)-one 1,1-dioxide]	≥ 8.30
CN1C2CC1CN(c1ccc(Nc3ncc(C(F)(F)F)c(-c4cc5c(s4)C(=O)N(C4CC4)CCS5(=O)=O)n3)c(C3CC3)c1)C2 [Example 339, 4-cyclopropyl-7-(2-((2-cyclopropyl-4-(6-methyl-3,6-diazabicyclo[3.1.1]heptan-3-yl)phenyl)amino)-5-(trifluoromethyl)pyrimidin-4-yl)-3,4-dihydrothieno[2,3-f][1,4]thiazepin-5(2H)-one 1,1-dioxide]	≥ 8.30
O=C1c2sc(-c3nc(Nc4ccc(N5CC6CC(C5)N6)cc4C4CC4)ncc3C(F)(F)F)cc2S(=O)(=O)CCN1C1COC1 [Example 340, 7-(2-((4-(3,6-diazabicyclo[3.1.1]heptan-3-yl)-2-cyclopropylphenyl)amino)-5-(trifluoromethyl)pyrimidin-4-yl)-4-(oxetan-3-yl)-3,4-dihydrothieno[2,3-f][1,4]thiazepin-5(2H)-one 1,1-dioxide]	≥ 8.30
C[C@H]1CN(c2ccc(Nc3ncc(C(F)(F)F)c(-c4cc5c(s4)C(=O)N(C4COC4)CCS5(=O)=O)n3)c(C3CC3)c2)CCN1 [Example 341, (S)-7-(2-((2-Cyclopropyl-4-(3-methylpiperazin-1-yl)phenyl)amino)-5-(trifluoromethyl)pyrimidin-4-yl)-4-(oxetan-3-yl)-3,4-dihydrothieno[2,3-f][1,4]thiazepin-5(2H)-one 1,1-dioxide]	≥ 8.30
C[C@H]1CN(c2ccc(Nc3ncc(C(F)(F)F)c(-c4cc5c(s4)C(=O)N(C4COC4)CCS5(=O)=O)n3)c(C3CC3)c2)CCN1C [Example 342, (S)-7-(2-((2-cyclopropyl-4-(3,4-dimethylpiperazin-1-yl)phenyl)amino)-5-(trifluoromethyl)pyrimidin-4-yl)-4-(oxetan-3-yl)-3,4-dihydrothieno[2,3-f][1,4]thiazepin-5(2H)-one 1,1-dioxide]	≥ 8.30
C[C@@H]1CN(c2ccc(Nc3ncc(C(F)(F)F)c(-c4cc5c(s4)C(=O)N(C4CC4)CCS5(=O)=O)n3)c(C3CC3)c2)C[C@H](C)N1C [Example 343, 4-Cyclopropyl-7-(2-((2-cyclopropyl-4-((3S,5R)-3,4,5-trimethylpiperazin-1-yl)phenyl)amino)-5-(trifluoromethyl)pyrimidin-4-yl)-3,4-dihydrothieno[2,3-f][1,4]thiazepin-5(2H)-one 1,1-dioxide]	≥ 8.30
C[C@H]1CN(c2ccc(Nc3ncc(C(F)(F)F)c(-c4cc5c(s4)C(=O)N(C4COC4)CCS5(=O)=O)n3)c(C3CC3)c2)C[C@H](C)N1 [Example 344, 7-(2-((2-Cyclopropyl-4-((3S,5S)-3,5-dimethylpiperazin-1-yl)phenyl)amino)-5-(trifluoromethyl)pyrimidin-4-yl)-4-(oxetan-3-yl)-3,4-dihydrothieno[2,3-f][1,4]thiazepin-5(2H)-one 1,1-dioxide]	≥ 8.30
O=C1c2sc(-c3nc(Nc4ccc(N5CCN[C@@H](CO)C5)cc4C4CC4)ncc3C(F)(F)F)cc2S(=O)(=O)CCN1C1CC1 [Example 345, (R)-4-cyclopropyl-7-(2-((2-cyclopropyl-4-(3-(hydroxymethyl)piperazin-1-yl)phenyl)amino)-5-(trifluoromethyl)pyrimidin-4-yl)-3,4-dihydrothieno[2,3-f][1,4]thiazepin-5(2H)-one 1,1-dioxide]	≥ 8.30
